The values that follow come from patent US20230331673A1, “COMPOSITION OF COMPOUNDS THAT MODULATE CELL METABOLISM AND METHODS OF USE” (CRESCENTA BIOSCIENCES, priority 2020, published 2023).

For this experiment, the system named is differentiated 3T3-L1 mouse adipocyte cells. Description: Adipocyte glucose consumption in differentiated 3T3-L1 mouse adipocyte cells (loss of glucose from medium, colorimetric). The class given is cell-based. The settings on record: compound 10 μM, 22 to 24 hours, differentiated 3T3-L1 adipocytes, compound/DMSO, read-out: Glucose consumption (fold change) Mean. On the procedure:
Activity of compounds on adipocyte glucose consumption was tested in differentiated 3T3-L1 mouse adipocyte cells. 3T3-L1 preadipocytes (ATCC) were routinely cultured in a growth medium composed of DMEM high-glucose (Sigma), 10% FBS (Gibco), 10 U/ml penicillin and 10 μg/ml streptomycin (P/S; Gibco). To induce adipogenic differentiation, a confluent layer of 3T3-L1 cells were incubated with the growth medium containing 2 μM rosiglitazone, 1 μM dexamethasone, 500 μM IBMX, and 1 μg/ml insulin (Sigma). Forty-eight (48) hours later (on day 2) and on days 4 and 6, medium of the cells was replaced with fresh medium containing 1 μg/ml insulin. On days 8 and 10, the medium was refreshed with regular growth medium and addition of insulin was omitted. On day 11 or 12, medium of the cells were replaced with fresh medium containing either the indicated compounds (10 μM) or the vehicle in which the compounds were dissolved (DMSO). The final concentration of DMSO was 0.1% (v/v). Growth medium containing 0.1% DMSO was incubated in culture wells containing no cells and used as control. Twenty-two to 24 hours later, medium was harvested and subjected to centrifugation at 10,000 g for 5 min. Glucose concentration in the supernatants was determined using a colorimetric assay (Glucose Assay Kit I, Eton Biosciences). Glucose consumption in compound and vehicle treated cells was measured as loss of glucose from the culture medium and represented as mean fold change (compound/DMSO) t standard deviation (SD).
With `CCCCC1CCCc2c(n(Cc3cccc(C#N)c3)c3c(C(=O)O)cccc23)C1` (stereo not drawn) [7-butyl-5-[(3-cyanophenyl)methyl]-5H,6H,7H,8H,9H,10H-cyclohepta[b]indole-4-carboxylic acid], the fold induction at 10 µM turned out to be 1.29.
Turning to `CCCCC1CCCc2c(n(Cc3cccc(C#N)c3)c3c(C(=O)NCCO)cccc23)C1` (stereo not drawn) [7-butyl-5-[(3-cyanophenyl)methyl]-N-(2-hydroxyethyl)-5H,6H,7H,8H,9H,10H-cyclohepta[b]indole-4-carboxamide], the fold induction at 10 µM is 1.08.
Next, `CCCCC1CCCc2c(n(Cc3cccc(F)c3)c3c(C(=O)O)cccc23)C1` (stereo not drawn) [7-butyl-5-[(3-fluorophenyl)methyl]-5H,6H,7H,8H,9H,10H-cyclohepta[b]indole-4-carboxylic acid]: 1.12.
Next, `CCCCC1CCCc2c(n(Cc3cccc(O)c3)c3c(C(=O)O)cccc23)C1` (stereo not drawn) [7-butyl-5-[(3-hydroxyphenyl)methyl]-5H,6H,7H,8H,9H,10H-cyclohepta[b]indole-4-carboxylic acid]: 1.14; `CCCCC1CCCc2c(n(Cc3cccc(OC)c3)c3c(C(=O)O)cccc23)C1` (stereo not drawn) [7-butyl-5-[(3-methoxyphenyl)methyl]-5H,6H,7H,8H,9H,10H-cyclohepta[b]indole-4-carboxylic acid]: 1.23.
To `CCCCC1CCCc2c(n(Cc3cccc(C)c3)c3c(C(=O)O)cccc23)C1` (stereo not drawn) [7-butyl-5-[(3-methylphenyl)methyl]-5H,6H,7H,8H,9H,10H-cyclohepta[b]indole-4-carboxylic acid] belongs 1.32.
Consider `CCCCC1CCCc2c(n(Cc3ccc(C(N)=O)cc3)c3c(C(=O)O)cccc23)C1` (stereo not drawn) [7-butyl-5-[(4-carbamoylphenyl)methyl]-5H,6H,7H,8H,9H,10H-cyclohepta[b]indole-4-carboxylic acid], for which the fold induction at 10 µM came to 1.13.
As for `CCCCC1CCCc2c(n(Cc3ccc(C)cc3)c3c(C(=O)O)cccc23)C1` (stereo not drawn) [7-butyl-5-[(4-methylphenyl)methyl]-5H,6H,7H,8H,9H,10H-cyclohepta[b]indole-4-carboxylic acid], the fold induction at 10 µM came out at 1.27.
Turning to `CCCCC1CCCc2c(n(Cc3cccnc3)c3c(C(=O)O)cccc23)C1` (stereo not drawn) [7-butyl-5-[(pyridin-3-yl)methyl]-5H,6H,7H,8H,9H,10H-cyclohepta[b]indole-4-carboxylic acid], the fold induction at 10 µM is 1.21.
To `CCCCCCC1CCCc2c(n(Cc3ccnc(OC)c3)c3c(C(=O)O)cccc23)C1` (stereo not drawn) [7-hexyl-5-[(2-methoxypyridin-4-yl)methyl]-5H,6H,7H,8H,9H,10H-cyclohepta[b]indole-4-carboxylic acid] belongs 1.12; to `CCCCCCC1CCCc2c(n(Cc3ccccc3C)c3c(C(=O)O)cccc23)C1` (stereo not drawn) [7-hexyl-5-[(2-methylphenyl)methyl]-5H,6H,7H,8H,9H,10H-cyclohepta[b]indole-4-carboxylic acid], 1; to `CCCCCCC1CCCc2c(n(Cc3cccc(C)c3)c3c(C(=O)O)cccc23)C1` (stereo not drawn) [7-hexyl-5-[(3-methylphenyl)methyl]-5H,6H,7H,8H,9H,10H-cyclohepta[b]indole-4-carboxylic acid], 1.13.
`CCCCCCC1CCCc2c(n(Cc3ccc(C)cc3)c3c(C(=O)O)cccc23)C1` (stereo not drawn) [7-hexyl-5-[(4-methylphenyl)methyl]-5H,6H,7H,8H,9H,10H-cyclohepta[b]indole-4-carboxylic acid]: the fold induction at 10 µM amounted to 1.05.
Take `CCCCCCC1CCCc2c(n(Cc3cccnc3)c3c(C(=O)O)cccc23)C1` (stereo not drawn) [7-hexyl-5-[(pyridin-3-yl)methyl]-5H,6H,7H,8H,9H,10H-cyclohepta[b]indole-4-carboxylic acid]: the fold induction at 10 µM amounted to 1.14.
For the compound `CCCCCCC1CCc2c(n(Cc3ccccc3C#N)c3c(C(=O)O)cccc23)C1` (stereo not drawn) [9-[(2-cyanophenyl)methyl]-2-hexyl-2,3,4,9-tetrahydro-1H-carbazole-8-carboxylic acid], the fold induction at 10 µM worked out at 1.13.
Consider `CCCCCCC1CCc2c(n(Cc3ccccc3F)c3c(C(=O)O)cccc23)C1` (stereo not drawn) [9-[(2-fluorophenyl)methyl]-2-hexyl-2,3,4,9-tetrahydro-1H-carbazole-8-carboxylic acid], for which the fold induction at 10 µM turned out to be 1.24.
Consider `CCCCCOC1CCCc2c1n(Cc1cccc(C(N)=O)c1)c1c(C(=O)O)cccc21` (stereo not drawn) [9-[(3-carbamoylphenyl)methyl]-1-(pentyloxy)-2,3,4,9-tetrahydro-1H-carbazole-8-carboxylic acid], for which the fold induction at 10 µM came to 1.09.
As to `CCC1CCCc2c1n(Cc1cccc(C(N)=O)c1)c1c(C(=O)O)cccc21` (stereo not drawn) [9-[(3-carbamoylphenyl)methyl]-1-ethyl-2,3,4,9-tetrahydro-1H-carbazole-8-carboxylic acid], the fold induction at 10 µM worked out at 0.94.
For `CCCOC1CCCc2c1n(Cc1cccc(C(N)=O)c1)c1c(C(=O)O)cccc21` (stereo not drawn) [9-[(3-carbamoylphenyl)methyl]-1-propoxy-2,3,4,9-tetrahydro-1H-carbazole-8-carboxylic acid], the fold induction at 10 µM amounted to 1.03.
`CCC1CCc2c(n(Cc3cccc(C(N)=O)c3)c3c(C(=O)O)cccc23)C1` (stereo not drawn) [9-[(3-carbamoylphenyl)methyl]-2-ethyl-2,3,4,9-tetrahydro-1H-carbazole-8-carboxylic acid]: the fold induction at 10 µM is 1.06.
For `CCCCCCC1CCc2c(n(Cc3cccc(C(N)=O)c3)c3c(C(=O)O)cccc23)C1` (stereo not drawn) [9-[(3-carbamoylphenyl)methyl]-2-hexyl-2,3,4,9-tetrahydro-1H-carbazole-8-carboxylic acid], the fold induction at 10 µM came out at 1.13.
To `CCCCCC1CCc2c(n(Cc3cccc(C(N)=O)c3)c3c(C(=O)O)cccc23)C1` (stereo not drawn) [9-[(3-carbamoylphenyl)methyl]-2-pentyl-2,3,4,9-tetrahydro-1H-carbazole-8-carboxylic acid] belongs 1.13; to `CCCC1CCc2c(n(Cc3cccc(C(N)=O)c3)c3c(C(=O)O)cccc23)C1` (stereo not drawn) [9-[(3-carbamoylphenyl)methyl]-2-propyl-2,3,4,9-tetrahydro-1H-carbazole-8-carboxylic acid], 1.09.
Next, `CCC1CCc2c(c3cccc(C(=O)O)c3n2Cc2cccc(C(N)=O)c2)C1` (stereo not drawn) [9-[(3-carbamoylphenyl)methyl]-3-ethyl-2,3,4,9-tetrahydro-1H-carbazole-8-carboxylic acid]: 1.1; `CCCCCC1CCc2c(c3cccc(C(=O)O)c3n2Cc2cccc(C(N)=O)c2)C1` (stereo not drawn) [9-[(3-carbamoylphenyl)methyl]-3-pentyl-2,3,4,9-tetrahydro-1H-carbazole-8-carboxylic acid]: 1.08.
Take `CCCC1CCc2c(c3cccc(C(=O)O)c3n2Cc2cccc(C(N)=O)c2)C1` (stereo not drawn) [9-[(3-carbamoylphenyl)methyl]-3-propyl-2,3,4,9-tetrahydro-1H-carbazole-8-carboxylic acid]: the fold induction at 10 µM stood at 1.1.
Turning to `CCC1CCCc2c1c1cccc(C(=O)O)c1n2Cc1cccc(C(N)=O)c1` (stereo not drawn) [9-[(3-carbamoylphenyl)methyl]-4-ethyl-2,3,4,9-tetrahydro-1H-carbazole-8-carboxylic acid], the fold induction at 10 µM came out at 1.21.
To `CCCCCC1CCCc2c1c1cccc(C(=O)O)c1n2Cc1cccc(C(N)=O)c1` (stereo not drawn) [9-[(3-carbamoylphenyl)methyl]-4-pentyl-2,3,4,9-tetrahydro-1H-carbazole-8-carboxylic acid] belongs 1.12; to `CCCC1CCCc2c1c1cccc(C(=O)O)c1n2Cc1cccc(C(N)=O)c1` (stereo not drawn) [9-[(3-carbamoylphenyl)methyl]-4-propyl-2,3,4,9-tetrahydro-1H-carbazole-8-carboxylic acid], 1.04.
To `CCC1CCCc2c1n(Cc1cccc(C(=O)O)c1)c1c(C(=O)O)cccc21` (stereo not drawn) [9-[(3-carboxyphenyl)methyl]-1-ethyl-2,3,4,9-tetrahydro-1H-carbazole-8-carboxylic acid] belongs 1.09; to `CCC1CCc2c(n(Cc3cccc(C(=O)O)c3)c3c(C(=O)O)cccc23)C1` (stereo not drawn) [9-[(3-carboxyphenyl)methyl]-2-ethyl-2,3,4,9-tetrahydro-1H-carbazole-8-carboxylic acid], 1.11.
Regarding `CCC1CCCc2c1c1cccc(C(=O)O)c1n2Cc1cccc(C(=O)O)c1` (stereo not drawn) [9-[(3-carboxyphenyl)methyl]-4-ethyl-2,3,4,9-tetrahydro-1H-carbazole-8-carboxylic acid], the fold induction at 10 µM is 1.06.
Next, `CCCCCOC1CCCc2c1n(Cc1cccc(C#N)c1)c1c(C(=O)O)cccc21` (stereo not drawn) [9-[(3-cyanophenyl)methyl]-1-(pentyloxy)-2,3,4,9-tetrahydro-1H-carbazole-8-carboxylic acid]: 1.19.
To `CCC1CCCc2c1n(Cc1cccc(C#N)c1)c1c(C(=O)O)cccc21` (stereo not drawn) [9-[(3-cyanophenyl)methyl]-1-ethyl-2,3,4,9-tetrahydro-1H-carbazole-8-carboxylic acid] belongs 1.11.
To `CCCCCCC1CCc2c(n(Cc3cccc(C#N)c3)c3c(C(=O)O)cccc23)C1` (stereo not drawn) [9-[(3-cyanophenyl)methyl]-2-hexyl-2,3,4,9-tetrahydro-1H-carbazole-8-carboxylic acid] belongs 1.16; to `CCCCCC1CCc2c(n(Cc3cccc(C#N)c3)c3c(C(=O)O)cccc23)C1` (stereo not drawn) [9-[(3-cyanophenyl)methyl]-2-pentyl-2,3,4,9-tetrahydro-1H-carbazole-8-carboxylic acid], 1.34.
